{
  "source": "patent US4992470A",
  "about": "“Method of enhancing immune response of mammals” (Iowa State University Research Foundation, Inc., priority 1990, dated 1991)",
  "experiment": "Stability of HMB (and KIC) in the rumen: incubation in diluted rumen fluid",
  "type": "in vitro ADME, steer",
  "procedure": "Rumen fluid was collected from a fistulated steer. After filtration and dilution (1:4) with an artificial saliva, 25ml of the solution was added to 50ml plastic tubes. Each tube was fitted with a one-way valve to allow gases to escape while not allowing air into the tube. Each tube was then gassed with C02 and incubated at 39° C. After 30 min a solution of KIC or HMB was added to the tube in concentrations to simulate what would be present in the rumen of an animal consuming .05% of the diet as KIC or HMB. It was estimated that a 50uM concentration would be attained in this case. At timed intervals 50ul samples of this rumen fluid were taken and analyzed for KIC and HMB.",
  "data": [
    {"smiles": "CC(C)(O)CC(=O)O", "note": "[HMB, β-hydroxy-β-methyl butyric acid]", "values": [
      {"measurement": "Stability in rumen environment (in words)", "result": "quite stable in a rumen environment"},
      {"measurement": "KIC / HMB in rumen fluid", "setting": "0 min after addition, rumen fluid diluted 1:4, 39° C., initial concentration of KIC was estimated", "result": 60, "unit": "µM"},
      {"measurement": "KIC / HMB in rumen fluid", "setting": "15 min after addition, rumen fluid, 39° C.", "result": 76, "unit": "µM"},
      {"measurement": "KIC / HMB in rumen fluid", "setting": "30 min after addition, rumen fluid, 39° C.", "result": 81, "unit": "µM"},
      {"measurement": "KIC / HMB in rumen fluid", "setting": "60 min after addition, rumen fluid, 39° C.", "result": 71, "unit": "µM"},
      {"measurement": "KIC / HMB in rumen fluid", "setting": "240 min after addition, rumen fluid, 39° C.", "result": 74, "unit": "µM"},
      {"measurement": "KIC / HMB in rumen fluid", "setting": "480 min after addition, rumen fluid, 39° C.", "result": 74, "unit": "µM"}
    ]}
  ]
}
